Key:
Assay in all cases: relative viability (nuclei count vs DMSO), 5 days (fraction); higher = more cells survive
[1] = compound: Cc1cc(Nc2cc(N3CCN(C)CC3)nc(Sc3ccc(NC(=O)C4CC4)cc3)n2)n[nH]1 [Tozasertib] + CC(=O)c1c(C)c2cnc(Nc3ccc(N4CCNCC4)cn3)nc2n(C2CCCC2)c1=O [Palbociclib] (partner 0.5 µM)
How it was run: (§1)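 Dosing by pin tool came one day after lung cancer cell lines were seeded in 1536-well plates, using either one drug or a fixed anchor-drug dose plus five library-drug doses (not always all listed) in √10 steps. After 5 days, nuclei were counted on 4× images. Relative viability is treated-well nuclei count divided by vehicle-well nuclei count, and values are medians of duplicate plates.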

[2] = compound: Cc1cc(Nc2cc(N3CCN(C)CC3)nc(Sc3ccc(NC(=O)C4CC4)cc3)n2)n[nH]1 [Tozasertib] + CC1(C)CCC(c2ccc(Cl)cc2)=C(CN2CCN(c3ccc(C(=O)NS(=O)(=O)c4ccc(N[C@H](CCN5CCOCC5)CSc5ccccc5)c(S(=O)(=O)C(F)(F)F)c4)cc3)CC2)C1 [Navitoclax] (partner 0.5 µM)
How it was run: as §1

[3] = compound: Cc1cc(Nc2cc(N3CCN(C)CC3)nc(Sc3ccc(NC(=O)C4CC4)cc3)n2)n[nH]1 [Tozasertib] + COc1cccc2cc(-c3nc([C@H]4CC[C@H](C(=O)O)CC4)n4ncnc(N)c34)[nH]c12 [OSI-027] (partner 0.5 µM)
How it was run: as §1

[4] = compound: Cc1cc(Nc2cc(N3CCN(C)CC3)nc(Sc3ccc(NC(=O)C4CC4)cc3)n2)n[nH]1 [Tozasertib] + Cc1nc(Nc2ncc(C(=O)Nc3c(C)cccc3Cl)s2)cc(N2CCN(CCO)CC2)n1 [Dasatinib] (partner 0.075 µM)
How it was run: as §1

[5] = compound: Cc1cc(Nc2cc(N3CCN(C)CC3)nc(Sc3ccc(NC(=O)C4CC4)cc3)n2)n[nH]1 [Tozasertib] + O=C(CCCCCCC(=O)Nc1ccccc1)NO [Vorinostat] (partner 1 µM)
How it was run: as §1

Row | Cell Line | relative viability ([1]; first compound 0.004 µM) | relative viability ([1]; first compound 0.01265 µM) | relative viability ([1]; first compound 0.04 µM) | relative viability ([1]; first compound 0.1265 µM) | relative viability ([2]; first compound 0.004 µM) | relative viability ([2]; first compound 0.01265 µM) | relative viability ([2]; first compound 0.04 µM) | relative viability ([2]; first compound 0.1265 µM) | relative viability ([3]; first compound 0.004 µM) | relative viability ([3]; first compound 0.01265 µM) | relative viability ([3]; first compound 0.04 µM) | relative viability ([3]; first compound 0.1265 µM) | relative viability ([4]; first compound 0.004 µM) | relative viability ([4]; first compound 0.01265 µM) | relative viability ([4]; first compound 0.04 µM) | relative viability ([4]; first compound 0.1265 µM) | relative viability ([5]; first compound 0.004 µM) | relative viability ([5]; first compound 0.01265 µM) | relative viability ([5]; first compound 0.04 µM) | relative viability ([5]; first compound 0.1265 µM)
1 | NCI-H3122 | 0.157 | 0.159 | 0.211 | 0.201 | 0.996 | 1 | 1.04 | 1.05 | 1.04 | 0.915 | 0.967 | 0.928 | 0.71 | 0.802 | 0.913 | 0.886 | 0.852 | 1.07 | 0.869 | 0.485
2 | PC-3 [JPC-3] | 0.526 | 0.535 | 0.511 | 0.545 | 0.579 | 0.699 | 0.935 | 0.756 | 0.587 | 0.74 | 0.799 | 0.701 | 0.863 | 0.966 | 1.06 | 1.03 | 0.616 | 0.51 | 0.71 | 0.566
3 | PC-14 |  | 0.576 | 0.526 | 0.474 | 1.03 |  | 1.01 |  |  | 0.795 | 1.06 | 0.523 |  | 0.292 | 0.254 | 0.132 |  | 0.741 | 0.879 | 0.121
4 | RERF-LC-KJ | 1.14 | 0.973 | 1.01 | 0.969 | 0.994 | 0.93 | 0.804 | 0.997 |  | 0.597 | 0.59 | 0.484 | 0.729 | 0.806 | 0.852 | 0.582 |  | 0.519 | 0.654 | 0.478
5 | SK-LU-1 | 0.428 | 0.414 | 0.476 | 0.469 | 0.894 | 0.939 | 0.981 | 0.635 | 0.466 | 0.371 | 0.358 | 0.301 | 0.183 | 0.191 | 0.188 | 0.146 | 0.893 | 0.788 | 0.82 | 0.34
6 | SK-MES-1 | 0.317 | 0.32 | 0.364 | 0.38 | 1.17 | 1.23 | 1.4 | 1.02 | 0.518 | 0.633 | 0.647 | 0.531 | 0.358 | 0.336 | 0.342 | 0.356 | 1 | 1.1 | 1.19 | 0.525
7 | SW 1573 | 0.455 | 0.355 | 0.284 | 0.151 | 1.1 | 1.06 | 1.15 | 0.816 | 0.619 | 0.526 | 0.512 | 0.204 | 0.505 | 0.43 | 0.361 | 0.0939 | 0.624 | 0.599 | 0.509 | 0.192
8 | UMC-11 | 0.345 | 0.317 | 0.356 | 0.248 | 0.381 | 0.295 | 0.303 | 0.13 | 0.538 | 0.471 | 0.512 | 0.171 | 0.495 | 0.545 | 0.521 | 0.161 | 0.408 | 0.327 | 0.291 | 0.16
